Data as given in patent US5916906A, “Compositions comprising nicotinylalanine and an inhibitor of glycine conjugation or vitamin B6” (priority 1997, dated 1999).
Several values for one entry are separate records, joined by “and”; a condition that tells them apart may be missing. Equal entries are not always repeated.

Columns and labels:
Assay type in all cases: in vivo, C57BL/6 mice
[1] = tested on: LP-BM5 MuLV Retrovirus; assay: MAIDS model, interim sacrifices: body weight, disease score, spleen weight; conditions: for Body Wt. / Spleen Wt.: individual mouse; for Disease Score: scores 0 through +4, individual mouse
Experimental: This study was designed to determine whether nicotinylalanine (NAL) alone or in combination with acetylsalicylic acid (ASA) will prevent or alter the course of murine retroviral-induced immunodeficiency disease, MAIDS, in C57BL/6 female mice. The LP-BM5 MuLV virus used for these studies was prepared from chronically infected SC-1 cells (ATCC Cat. No. CRL-1404), as described by Yetter R. A. et al., J. Exp. Med., 168, 623-635, 1988. […] The MAIDS model is well characterized and reproducible in the laboratory, as described by Mosier D. E. et al., J. Exp. Med. 161, 766-784, 1985.
Measures of disease progression followed the methods developed by Eiseman et al., 1991 (Ibid). Disease scores 0 through +4 are based upon body weight gain and palpable alterations in the size of lymph nodes and spleen. Severity of disease is scored as follows: 0.5, increased body weight and variably detected increase in size of any one lymph node or spleen; +1, clearly detectable increase in the size of a lymph node and spleen; +2, readily detectable (greater than 0.3 cm in diameter) increased size in more than one lymph node and, in particular, enlargement of subcervical, brachial or axillary nodes; +3, increased size of all palpable nodes and palpable splenomegaly (≥0.3 grams); +4, advanced disease with extensive splenomegaly (>1.0 grams) and lymphadenopathy.
Specific pathogen free, female C57BL/6 mice (5 weeks of age) were purchased from Charles River Breeding Laboratories. All mice were allowed one week to acclimate to housing facilities prior to randomization for study. Animals were marked for identification and placed in microisolator cages with identifying cards (5 mice/cage), where autoclaved food and water were provided ad libitum.
NAL and ASA were formulated under sterile conditions according to preformulation methods outlined in Remington's Pharmaceutical Sciences Handbook, 18th Edition, 1990, ibid). NAL and ASA were dissolved in sterile phosphate-buffered normal saline solution (i.e., vehicle; Biofluids Inc., Lot 413054), adjusted to between pH 7.2 to 7.4 with […], sterilized by filtration through 0.2 μm bottle-type filters, and dispersed into sterile glass vials, sealed and capped (Wheaton Inc.).
Except for Group 6 (which began treatment 2 weeks after virus inoculation),test drug injections began 1 day after virus infection and continued every day except weekends (i.e., 5 times per week).
(§1) Disease progression was monitored by measuring serum IgM levels by ELISA on all animals at monthly intervals during the course of disease. Three mice per group were randomly selected and sacrificed at monthly intervals (end of month one through four) of the study. Disease scores for each animal were recorded weekly based upon palpation of lymph nodes and spleen. Complete gross necropsies were performed on these euthanized animals and the ratio of recorded spleen to body weights was an additional indicator of diseases progression. […] Infection was quantified by ecotropic virus XC plaque assays of spleens removed from the interim sacrificed animals.

[2] = tested on: LP-BM5 Retrovirus; assay: Ecotropic virus XC plaque assay on spleen cells of treated LP-BM5 infected mice; conditions: for Virus titer, plaques per million spleen cells: four months after inoculation, mean ± standard deviation, NAL 400 mg/kg
Excerpt: FIG. 4A and 4B: Mean Number of Virus Particles as Determined from Plaques per Million Spleen Cells from Serially Sacrificed Mice at Monthly Intervals After Inoculation with LP-BM5 Retrovirus. […] Each ml of the virus pool contained 3.66 log PFU ecotropic virus as determined by XC Plaque Assay. Treatment in all groups began one day after virus inoculation, except for the NAL 400 Delay Group which began treatment two weeks after virus inoculation. Groups and treatments are as follows:
FIG. 4B: LP-BM5+PBS=as described above; NAL 400=virus positive, plus daily (M-F) i.p. injections of nicotinylalanine (400 mg/kg) only; NAL 400 delay=nicotinylalanine (400 mg/kg) only, injected i.p. daily (M-F) beginning two weeks after virus inoculation.
Ecotropic virus titers were determined using the XC plaque assay (Yetter R. A. et al., J. Exp. Med., 168, 623-635, 1988) and were performed on spleen cells cultured from all serially killed mice at the interim sacrifices as shown in Tables 2-A & 2-B). Spleens were weighed and cells were extruded with sterile media (RPMI 1640, with gentamycin and 10% fetal calf serum). Serial 10-fold dilutions were made and one ml of each dilution was overlayered onto a monolayer of SC-1 cells treated with 4 μg/ml polybrene. After 24 hours, the media was removed and washed and the SC-1 cells were fed with fresh media. When the monolayer was confluent, the plates were irradiated with UV light at 60 ergs/mm^2 /sec and overlayered with XC cells. When the XC cell layer was confluent, the plates were fixed with methanol and stained with Giemsa Stain. Plaques were counted on an Artek colony counter and confirmed by phase contrast microscopy. Values presented in FIG. 4A represent the mean of adjusted samples at three dilutions expressed as plaques per million spleen cells. Mean and standard deviations corresponding to each of the data points in FIGS. 4A and 4B are derived from three mice serially killed at interim sacrifice times.

[3] = Hematocrit of LP-BM5 infected mice (hematopoietic toxicity); conditions: for Mean Hematocrit: virus-positive, NAL 400 mg/kg, ASA 20 mg/kg, AZT printed 1 mg/kg
Experimental: as §1, with “animals. The study was to be terminated when mice were either dead or disease scores were +4 in more than 50% of the vehicle-treated MAIDS controls (Group 1), which occurred at 19 weeks post-inoculation of the virus pool. However, as the remaining mice in Group 1 were slow to progress towards more severe disease (FIG. 5) or death (FIG. 6), the study was extended until a termination date of 28 weeks post-inoculation.” for “animals.”
Mice were maintained through the fifth month post virus inoculation until

[4] = 1 month postinoculation, treatment from day 1: NAL 400 mg/kg i.p., ASA 20 mg/kg i.p., AZT 1 mg/ml in drink water
[5] = 2 months postinoculation, treatment from day 1: NAL 400 mg/kg i.p., ASA 20 mg/kg i.p., AZT 1 mg/ml in drink water
[6] = 3 months postinoculation, treatment from day 1: NAL 400 mg/kg i.p., ASA 20 mg/kg i.p., AZT 1 mg/ml in drink water
[7] = 4 months postinoculation, treatment from day 1: NAL 400 mg/kg i.p., ASA 20 mg/kg i.p., AZT 1 mg/ml in drink water
[8] = 1 month postinoculation, NAL 200 mg/kg i.p. (no ASA)
[9] = 1 month postinoculation, NAL 400 mg/kg i.p., delayed Rx 2 weeks
[10] = 2 months postinoculation, NAL 200 mg/kg i.p. (no ASA)
[11] = 2 months postinoculation, NAL 400 mg/kg i.p., delayed Rx 2 weeks
[12] = 3 months postinoculation, NAL 400 mg/kg i.p., delayed Rx 2 weeks
[13] = 4 months postinoculation, NAL 400 mg/kg i.p., delayed Rx 2 weeks

Question: Which “Body Wt.” value [1, 4] does the source give for `Cc1cn([C@H]2C[C@H](N=[N+]=[N-])[C@@H](CO)O2)c(=O)[nH]c1=O` [AZT, 3'azido-3'deoxythymidine, reference compound] here?
Answer: 21.1 Grams and 20.9 Grams and 19.6 Grams

Question: And the “Spleen Wt.” value [1, 4]?
Answer: 0.097 Grams and 0.108 Grams and 0.096 Grams

Question: What about the “Disease Score” value [1, 4] of the same molecule?
Answer: 0 and 0.5

Question: What about the “Body Wt.” value [1, 5] of the same molecule?
Answer: 20.9 Grams and 20.0 Grams and 22.6 Grams

Question: And the “Spleen Wt.” value [1, 5]?
Answer: 0.090 Grams and 0.104 Grams and 0.086 Grams

Question: What about the “Disease Score” value [1, 5] of the same molecule?
Answer: 0

Question: And the “Body Wt.” value [1, 6]?
Answer: 23.8 Grams and 23.5 Grams and 25.4 Grams

Question: And the “Spleen Wt.” value [1, 6]?
Answer: 0.118 Grams and 0.114 Grams and 0.112 Grams

Question: And the “Disease Score” value [1, 6]?
Answer: 0.5

Question: What about the “Body Wt.” value [1, 7] of the same molecule?
Answer: 25.0 Grams and 21.1 Grams and 28.6 Grams

Question: And the “Spleen Wt.” value [1, 7]?
Answer: 0.262 Grams and 0.086 Grams and 0.150 Grams

Question: And the “Disease Score” value [1, 7]?
Answer: 2 and 0 and 1

Question: And the “Virus titer, plaques per million spleen cells” value ([2]; ASA 20 mg/kg, AZT 1 mg/mL)?
Answer: 333±495 plaques per million spleen cells

Question: What about the “Mice with detectable virus (plaques) in spleens” value ([2]; four months, AZT with or without 400 mg/kg NAL) of the same molecule?
Answer: two of the mice

Question: And the “Mean Hematocrit” value ([3]; Month 1 (10 bled))?
Answer: 41.7 ± 4.0%

Question: And the “Mean Hematocrit” value ([3]; Month 2 (10 bled))?
Answer: 42.7 ± 2.4%

Question: And the “Mean Hematocrit” value ([3]; Month 3 (7 bled))?
Answer: 41.9 ± 1.7%

Question: And the “Mean Hematocrit” value ([3]; Month 4 (11 bled))?
Answer: 42.6 ± 3.0%

Question: What about the “Mean hematocrit over the four months sampled” value ([3]; NAL plus AZT (Group 5), AZT alone (Group 7)) of the same molecule?
Answer: ~42.6%

Question: And the Hematopoietic toxicity ([3]; one-month interim assessment, AZT in drinking water)?
Answer: hematopoietic toxicity was already manifest

Question: What does the source list for `NC(CC(=O)c1cccnc1)C(=O)O` (racemic) [NAL, γ-(3-pyridyl)-γ-oxo-α-aminobutyrate]?
Answer: Body Wt. [1, 8]: 21.9 Grams and 21.8 Grams and 23.4 Grams; Spleen Wt. [1, 8]: 0.080 Grams and 0.257 Grams and 0.123 Grams; Body Wt. [1, 9]: 20.4 Grams and 20.5 Grams and 22.3 Grams; Spleen Wt. [1, 9]: 0.103 Grams and 0.151 Grams and 0.136 Grams; Body Wt. [1, 4]: 21.3 Grams and 20.4 Grams and 19.6 Grams; Spleen Wt. [1, 4]: 0.186 Grams and 0.309 Grams and 0.159 Grams; Disease Score [1, 8]: 0 and 1 and 0.5; Disease Score [1, 9]: 0 and 0.5; Disease Score [1, 4]: 1; Body Wt. [1, 10]: 22.5 Grams and 23.8 Grams and 22.2 Grams; Spleen Wt. [1, 10]: 0.229 Grams and 0.098 Grams and 0.302 Grams; Body Wt. [1, 11]: 21.2 Grams and 20.0 Grams and 26.6 Grams; Spleen Wt. [1, 11]: 0.168 Grams and 0.086 Grams and 0.320 Grams; Body Wt. [1, 5]: 21.6 Grams and 24.0 Grams; Spleen Wt. [1, 5]: 0.289 Grams and 0.216 Grams and 0.125 Grams; Disease Score [1, 10]: 1 and 0.5 and 2; Disease Score [1, 11]: 1 and 0 and 2; Disease Score [1, 5]: 1 and 2; Body Wt. [1, 12]: 23.8 Grams and 25.3 Grams and 26.3 Grams; Spleen Wt. [1, 12]: 0.090 Grams and 0.112 Grams and 0.175 Grams; Body Wt. [1, 6]: 23.6 Grams and 22.3 Grams and 24.6 Grams; Spleen Wt. [1, 6]: 0.112 Grams and 0.341 Grams and 0.086 Grams; Disease Score [1, 12]: 0 and 0.5 and 1; Disease Score [1, 6]: 0.5 and 2; Body Wt. [1, 13]: 26.8 Grams and 27.5 Grams and 24.5 Grams; Spleen Wt. [1, 13]: 0.399 Grams and 0.157 Grams and 0.083 Grams; Body Wt. [1, 7]: 27.6 Grams and 28.0 Grams and 25.5 Grams; Spleen Wt. [1, 7]: 0.119 Grams and 1.030 Grams and 0.240 Grams; Disease Score [1, 13]: 3 and 1 and 0.5; Disease Score [1, 7]: 0.5 and 4 and 2; Virus titer, plaques per million spleen cells ([2]; ASA 20 mg/kg, AZT 1 mg/mL): 3,410±4,606 plaques per million spleen cells; Virus titer, plaques per million spleen cells ([2]; delayed two weeks): 796±463 plaques per million spleen cells; Effect on decreased hematocrit (in words) ([3]; mouse, in vivo): protective effect
